Source: patent US6414000B1, “Substituted diphenyl oxazolin derivatives with insecticidal effect” (Bayer Aktiengesellschaft, priority 1997, dated 2002)
Marks after values point to notes of the source that are not given here.

Legend:
[1] = logP, n-octanol/water partition coefficient by reversed phase HPLC; type: physicochemical; conditions: reversed phase HPLC using H2O/CH3CN; for logP (A isomer): A isomer (possible geometric isomer); for logP (B isomer): B isomer (possible geometric isomer)
[2] = system: caterpillars of the cotton bollworm (Heliothis armigera); assay: Heliothis armigera Test; type: in vivo; conditions: active compound concentration 0.00016%, after 6 days, dipped soy shoots
Procedure: (§1) Solvent: 7 parts by weight of dimethylformamide
(§2) Emulsifier: 1 part by weight of alkylaryl polyglycol ether
(§3) To produce a suitable preparation of active compound, 1 part by weight of active compound is mixed with the stated amount of solvent and the stated amount of emulsifier, and the concentrate is diluted with water to the desired concentration.
Soy shoots (Glycine max) are treated by being dipped into the active compound preparation of the desired concentration and are populated with caterpillars of the cotton bollworm (Heliothis armigera), while the leaves are still moist.
After the desired period of time, the activity in % is determined. 100% means that all the caterpillars have been killed; 0% means that none of the caterpillars have been killed.

[3] = system: larvae of the mustard beetle (Phaedon cochleariae); assay: Phaedon Larvae Test; type: in vivo; conditions: after 7 days, dipped cabbage leaves
Procedure: as §1, §2, §3
After the desired period of time, the kill in % is determined. 100% means that all the beetle larvae have been killed; 0% means that none of the beetle larvae have been killed.

[4] = system: caterpillars of the diamond back moth (Plutella xylostella); assay: Plutella Test; type: in vivo; conditions: active compound concentration 0.000032%, after 7 days, dipped cabbage leaves
Procedure: as §1, §2, §3
Cabbage leaves (Brassica oleracea) are treated by being dipped into the active compound preparation of the desired concentration and are infested with caterpillars of the diamond back moth (Plutella xylostella), while the leaves are still moist.
(§4) After the desired period of time, the activity in % is determined. 100% means that all caterpillars have been killed; 0% means that none of the caterpillars have been killed.

[5] = system: caterpillars of the owlet moth (Spodoptera frugiperda); assay: Spodoptera frugiperda Test; type: in vivo; conditions: active compound concentration 0.0001%, after 7 days, dipped cabbage leaves
Procedure: Spodoptera frugiperda Test
as §1, §2, §3
Cabbage leaves (Brassica oleracea) are treated by being dipped into the active compound preparation of the desired concentration and populated with caterpillars of the owlet moth (Spodoptera frugiperda) while the leaves are still moist.
as §4

[6] = system: greenhouse red spider mite (Tetranychus urticae); assay: Tetranychus Test (OP resistant/spray treatment); type: in vivo; conditions: active compound concentration 0.000032%, after 14 days, sprayed bean plants
Procedure: Tetranychus Test (OP resistant/spray treatment)
Solvent: 3 parts by weight of dimethylformamide
as §2, §3
Bean plants (Phaseolus vulgaris) which are heavily infested by all stages of the greenhouse red spider mite (Tetranychus urticae) are sprayed with an active compound preparation of the desired concentration.
After the desired period of time, the activity in % is determined. 100% means that all the spider mites have been killed; 0% means that none of the spider mites have been killed.

[7] = system: caterpillars of the owlet moth (Spodoptera exigua); assay: Spodoptera exigua Test; type: in vivo; conditions: active compound concentration 0.000032%, after 6 days, dipped cabbage leaves
Procedure: as §1, §2, §3
Cabbage leaves (Brassica oleracea) are treated by being dipped into the active compound preparation of the desired concentration and populated with caterpillars of the owlet moth (Spodoptera exigua), while the leaves are still moist.
as §4

Lucilia cuprina larvae = assay: Blowfly Larvae Test/development-inhibitory Action; type: in vivo; conditions: active compound concentration 100 ppm
Procedure: Blowfly Larvae Test/development-inhibitory Action
Test animals: Lucilia cuprina larvae
Solvent: Dimethyl sulphoxide
20 m of active compound are dissolved in 1 ml of dimethyl sulphoxide, and lower concentrations are prepared by dilution with distilled H2O .
About 20 Lucilia cuprina larvae are placed in a test tube containing about 1 cm^3 of horsemeat and 0.5 ml of the active compound preparation to be tested. The activity of the active compound preparation is determined after 24 hours and 48 hours. The test tubes are transferred into beakers whose bottom is covered with sand. After a further 2 days, the test tubes are removed and the pupae are counted.
The activity of the active compound preparation is judged by the number of flies which have hatched after 1.5 times the development period of an untreated control. 100% means that no flies have hatched; 0% means that all flies have hatched normally.

[8] = active compound concentration 0.01%

CCC(C)ON=C(C)COc1ccc(-c2ccc(C3COC(c4c(F)cccc4Cl)=N3)cc2)cc1 (mixture of isomers) [Example 3]
logP (A isomer) [1]: 5.90 (A isomer)* | logP (B isomer) [1]: 5.81 (B isomer)* | kill [2]: 100% | kill [3, 8]: 100% | kill [4]: 100% | kill [5]: 100%

CON=CCOc1ccc(-c2ccc(C3COC(c4c(F)cccc4F)=N3)cc2)cc1 (mixture of isomers) [Example 8]
logP (A isomer) [1]: 3.97 (A isomer)* | logP (B isomer) [1]: 4.14 (B isomer)*

CCON=CCOc1ccc(-c2ccc(C3COC(c4c(F)cccc4F)=N3)cc2)cc1 (mixture of isomers) [Example 16]
logP (A isomer) [1]: 4.35 (A isomer)* | logP (B isomer) [1]: 4.53 (B isomer)*

CCON=C(COc1ccc(-c2ccc(C3COC(c4c(F)cccc4F)=N3)cc2)cc1)C(C)(C)C=C(Cl)Cl (mixture of isomers) [Example 42]
logP (A isomer) [1]: 6.48 | logP (B isomer) [1]: 6.37

CCCCON=C(C)C(C)Oc1ccc(-c2ccc(C3COC(c4c(F)cccc4Cl)=N3)cc2)cc1 (mixture of isomers) [Example 49]
logP (A isomer) [1]: 6.23 | logP (B isomer) [1]: 6.09

CC(=NOCC(C)C)C(C)Oc1ccc(-c2ccc(C3COC(c4c(F)cccc4F)=N3)cc2)cc1 (mixture of isomers) [Example 51]
logP (A isomer) [1]: 5.93 | logP (B isomer) [1]: 5.79

CCCCON=C(C)C(C)Oc1ccc(-c2ccc(C3COC(c4c(F)cccc4F)=N3)cc2)cc1 (mixture of isomers) [Example 52]
logP (A isomer) [1]: 5.94 | logP (B isomer) [1]: 5.80

CC(COc1ccc(-c2ccc(C3COC(c4c(F)cccc4Cl)=N3)cc2)cc1)=NOCC(C)C (mixture of isomers) [Example 54]
logP (A isomer) [1]: 5.85 | logP (B isomer) [1]: 5.76

CCCCON=C(C)COc1ccc(-c2ccc(C3COC(c4c(F)cccc4F)=N3)cc2)cc1 (mixture of isomers) [Example 55]
logP (A isomer) [1]: 5.58 | logP (B isomer) [1]: 5.51

CCC(C)ON=C(C)COc1ccc(-c2ccc(C3COC(c4c(F)cccc4F)=N3)cc2)cc1 (mixture of isomers) [Example 56]
logP (A isomer) [1]: 5.61 | logP (B isomer) [1]: 5.54

CCCCON=C(C)C(C)Oc1ccc(-c2ccc(C3COC(c4ccccc4Cl)=N3)cc2)cc1Cl (mixture of isomers) [Example 61]
logP (A isomer) [1]: 6.84 | logP (B isomer) [1]: 6.67

CCCCON=C(C)C(C)Oc1ccc(-c2ccc(C3COC(c4c(F)cccc4F)=N3)cc2)cc1Cl (mixture of isomers) [Example 63]
logP (A isomer) [1]: 6.37 | logP (B isomer) [1]: 6.22

CON=C(C)C(C)Oc1ccc(-c2ccc(C3COC(c4ccccc4Br)=N3)cc2)cc1 (mixture of isomers) [Example 92]
logP (A isomer) [1]: 5.08 | logP (B isomer) [1]: 5.18

Fc1cccc(F)c1C1=NC(c2ccc(-c3ccc(OCc4ccc(C(F)(F)F)cc4)cc3)cc2)CO1 (centres unmarked) [Example 1, 2-(2,6-difluorophenyl)-4-[4′-(4″-trifluoromethylbenzyl-oxy)-biphenyl-4-yl]-1,3-oxazoline]
kill [2]: 100% | kill [3, 8]: 100% | kill [6]: 98% | kill [4]: 85% | kill [5]: 100% | kill [7]: 80%

CC(=NOC(C)C)C(C)(C)Oc1ccc(-c2ccc(C3COC(c4c(F)cccc4Cl)=N3)cc2)cc1 (centres unmarked) [Example 4]
logP [1]: 6.30 | kill ([3]; active compound concentration 0.00001%): 100% | kill [5]: 100%

CC(C)Oc1ccc(-c2ccc(C3COC(c4ccccc4Br)=N3)cc2)cc1 (centres unmarked) [Example 5]
activity (development-inhibitory action, flies not hatched) (Lucilia cuprina larvae): 100%

ClC1(Cl)CC1COc1ccc(-c2ccc(C3COC(c4ccccc4I)=N3)cc2)cc1 (centres unmarked) [Example 22]
logP [1]: 5.43

C#CC(C)Oc1ccc(-c2ccc(C3COC(c4c(F)cccc4F)=N3)cc2)cc1 (centres unmarked) [Example 36]
logP [1]: 4.15

C#CC(C)Oc1ccc(-c2ccc(C3COC(c4ccccc4Cl)=N3)cc2)cc1 (centres unmarked) [Example 37]
logP [1]: 4.49

CCON=CC(C)(C)Oc1ccc(-c2ccc(C3COC(c4c(F)cccc4F)=N3)cc2)cc1 (centres unmarked) [Example 53]
logP [1]: 5.00

CON=CC(C)(C)Oc1ccc(-c2ccc(C3COC(c4c(F)cccc4F)=N3)cc2)cc1 (centres unmarked) [Example 57]
logP [1]: 4.62

CC(=O)C(C)Oc1ccc(-c2ccc(C3COC(c4ccccc4Br)=N3)cc2)cc1 (centres unmarked) [Example 68]
logP [1]: 4.13

CC(O)C(C)Oc1ccc(-c2ccc(C3COC(c4ccccc4Br)=N3)cc2)cc1 (centres unmarked) [Example 91]
logP [1]: 3.74

CC(=O)C(C)Oc1ccc(-c2ccc(C3COC(c4ccccc4F)=N3)cc2)cc1 (centres unmarked) [Example 100]
logP [1]: 3.79

CC(C)(C=O)Oc1ccc(-c2ccc(C3COC(c4c(F)cccc4F)=N3)cc2)cc1 (centres unmarked) [Example 102]
logP [1]: 4.08

CC(C)Oc1ccc(-c2ccc(C3COC(c4ccccc4F)=N3)cc2)cc1 (centres unmarked) [Example 107]
logP [1]: 4.65

CC(C)COc1ccc(-c2ccc(C3COC(c4ccccc4F)=N3)cc2)cc1 (centres unmarked) [Example 108]
logP [1]: 5.34

CON=CCOc1ccc(-c2ccc(C3COC(c4c(F)cccc4Cl)=N3)cc2)cc1 (centres unmarked) [Example 112]
logP [1]: 4.27

CCON=CCOc1ccc(-c2ccc(C3COC(c4c(F)cccc4Cl)=N3)cc2)cc1 (centres unmarked) [Example 113]
logP [1]: 4.65

CON=CCOc1ccc(-c2ccc(C3COC(c4c(F)cccc4F)=N3)cc2)cc1Cl (centres unmarked) [Example 114]
logP [1]: 4.33

CCON=CCOc1ccc(-c2ccc(C3COC(c4c(F)cccc4F)=N3)cc2)cc1Cl (centres unmarked) [Example 115]
logP [1]: 4.71

CON=CCOc1ccc(-c2ccc(C3COC(c4ccccc4Cl)=N3)cc2)cc1Cl (centres unmarked) [Example 116]
logP [1]: 4.72

CCON=CCOc1ccc(-c2ccc(C3COC(c4ccccc4Cl)=N3)cc2)cc1Cl (centres unmarked) [Example 117]
logP [1]: 5.08

Cc1cc(-c2ccc(C3COC(c4c(F)cccc4F)=N3)cc2)ccc1OCC(F)(F)F (centres unmarked) [Example 119]
logP [1]: 4.80

Cc1cc(-c2ccc(C3COC(c4c(F)cccc4OCC(F)(F)F)=N3)cc2)ccc1OCC(F)(F)F (centres unmarked) [Example 120]
logP [1]: 4.91
